Laboratory results as given in ChEMBL document CHEMBL1156230, “Identification of phenylsulfone-substituted quinoxaline (WYE-672) as a tissue selective liver X-receptor (LXR) agonist” (J Med Chem, 2010).
Activity calls are given as the source filed them. No cut-off for these calls is given here.

Key:
Mus musculus [1] = test: Antiatherosclerotic activity against high fat/high cholesterol fed LDLR-deficient mouse assessed as adfp gene regulation at 0.6 mg/kg administered with diet for 7 days by Experion chip analysis; type: functional, organism-based; set-up: dose 0.6 mg/kg
Mus musculus [2] = test: Antiatherosclerotic activity against high fat/high cholesterol fed LDLR-deficient mouse assessed as abca1 gene regulation at 10 mg/kg administered with diet for 7 days by Experion chip analysis; type: functional, organism-based; set-up: dose 10 mg/kg
Mus musculus [3] = test: Antiatherosclerotic activity against high fat/high cholesterol fed LDLR-deficient mouse assessed as abcg1 gene regulation at 0.6 mg/kg administered with diet for 7 days by Experion chip analysis; type: functional, organism-based; set-up: dose 0.6 mg/kg
Mus musculus [4] = test: Antiatherosclerotic activity against high fat/high cholesterol fed LDLR-deficient mouse macrophages assessed as induction of ABCG1 expression at 0.6 mg/kg administered with diet for 8 weeks; type: functional, organism-based; set-up: dose 0.6 mg/kg
Mus musculus [5] = test: Antiatherosclerotic activity against high fat/high cholesterol fed LDLR-deficient mouse assessed as scab1 gene regulation at 3 mg/kg administered with diet for 7 days by Experion chip analysis; type: functional, organism-based; set-up: dose 3 mg/kg
Mus musculus [6] = test: Antiatherosclerotic activity against high fat/high cholesterol fed LDLR-deficient mouse assessed as abcg5 gene regulation at 3 mg/kg administered with diet for 8 weeks by Experion chip analysis
Mus musculus [7] = test: Antiatherosclerotic activity against high fat/high cholesterol fed LDLR-deficient mouse assessed as adfp gene regulation at 10 mg/kg administered with diet for 7 days by Experion chip analysis; type: functional, organism-based; set-up: dose 10 mg/kg
Mus musculus [8] = test: Antiatherosclerotic activity against high fat/high cholesterol fed LDLR-deficient mouse assessed as abcg1 gene regulation at 10 mg/kg administered with diet for 7 days by Experion chip analysis; type: functional, organism-based; set-up: dose 10 mg/kg
Mus musculus [9] = test: Antiatherosclerotic activity against high fat/high cholesterol fed LDLR-deficient mouse assessed as scd1 gene regulation at 10 mg/kg administered with diet for 7 days by Experion chip analysis; type: functional, organism-based; set-up: dose 10 mg/kg
Mus musculus [10] = test: Antiatherosclerotic activity against high fat/high cholesterol fed LDLR-deficient mouse assessed as lipg gene regulation at 3 mg/kg administered with diet for 7 days by Experion chip analysis; type: functional, organism-based; set-up: dose 3 mg/kg
Mus musculus [11] = test: Antiatherosclerotic activity against high fat/high cholesterol fed LDLR-deficient mouse macrophages assessed as induction of ABCA1 expression at 3 mg/kg administered with diet for 8 weeks; type: functional, organism-based; set-up: dose 3 mg/kg
Mus musculus [12] = test: Antiatherosclerotic activity against high fat/high cholesterol fed LDLR-deficient mouse assessed as lipg gene regulation at 0.6 mg/kg administered with diet for 7 days by Experion chip analysis; type: functional, organism-based; set-up: dose 0.6 mg/kg
Mus musculus [13] = test: Antiatherosclerotic activity against high fat/high cholesterol fed LDLR-deficient mouse assessed as Irp1 gene regulation at 10 mg/kg administered with diet for 7 days by Experion chip analysis; type: functional, organism-based; set-up: dose 10 mg/kg
Mus musculus [14] = test: Antiatherosclerotic activity against high fat/high cholesterol fed LDLR-deficient mouse assessed as apoc1 gene regulation at 0.6 mg/kg administered with diet for 7 days by Experion chip analysis; type: functional, organism-based; set-up: dose 0.6 mg/kg
Mus musculus [15] = test: Antiatherosclerotic activity against high fat/high cholesterol fed LDLR-deficient mouse duodenum assessed as induction of ABCG5 expression at 0.6 mg/kg administered with diet for 8 weeks; type: functional, organism-based; set-up: dose 0.6 mg/kg
Mus musculus [16] = test: Antiatherosclerotic activity against high fat/high cholesterol fed LDLR-deficient mouse assessed as Lipc gene regulation at 3 mg/kg administered with diet for 7 days by Experion chip analysis; type: functional, organism-based; set-up: dose 3 mg/kg
Mus musculus [17] = test: Antiatherosclerotic activity against high fat/high cholesterol fed LDLR-deficient mouse macrophages assessed as induction of ABCA1 expression at 0.6 mg/kg administered with diet for 8 weeks; type: functional, organism-based; set-up: dose 0.6 mg/kg
Mus musculus [18] = test: Antiatherosclerotic activity against high fat/high cholesterol fed LDLR-deficient mouse assessed as IPl gene regulation at 10 mg/kg administered with diet for 7 days by Experion chip analysis; type: functional, organism-based; set-up: dose 10 mg/kg
Mus musculus [19] = test: Antiatherosclerotic activity against high fat/high cholesterol fed LDLR-deficient mouse assessed as pcsk9 gene regulation at 10 mg/kg administered with diet for 7 days by Experion chip analysis; type: functional, organism-based; set-up: dose 10 mg/kg
Mus musculus [20] = test: Antiatherosclerotic activity against high fat/high cholesterol fed LDLR-deficient mouse assessed as abcg8 gene regulation at 10 mg/kg administered with diet for 7 days by Experion chip analysis; type: functional, organism-based; set-up: dose 10 mg/kg
Mus musculus [21] = test: Antiatherosclerotic activity against high fat/high cholesterol fed LDLR-deficient mouse assessed as pcsk9 gene regulation at 3 mg/kg administered with diet for 7 days by Experion chip analysis; type: functional, organism-based; set-up: dose 3 mg/kg
Mus musculus [22] = species: Mus musculus; test: Antiatherosclerotic activity against high fat/high cholesterol fed LDLR-deficient mouse assessed as reduction in plasma triglyceride level; type: functional, organism-based
Mus musculus [23] = test: Antiatherosclerotic activity against high fat/high cholesterol fed LDLR-deficient mouse assessed as scd1 gene regulation at 3 mg/kg administered with diet for 7 days by Experion chip analysis; type: functional, organism-based; set-up: dose 3 mg/kg
Mus musculus [24] = test: Antiatherosclerotic activity against high fat/high cholesterol fed LDLR-deficient mouse macrophages assessed as induction of ABCG1 expression at 10 mg/kg administered with diet for 8 weeks; type: functional, organism-based; set-up: dose 10 mg/kg
Mus musculus [25] = test: Antiatherosclerotic activity against high fat/high cholesterol fed LDLR-deficient mouse assessed as apo5 gene regulation at 0.6 mg/kg administered with diet for 7 days by Experion chip analysis; type: functional, organism-based; set-up: dose 0.6 mg/kg
Mus musculus [26] = test: Antiatherosclerotic activity against high fat/high cholesterol fed LDLR-deficient mouse assessed as scd1 gene regulation at 0.6 mg/kg administered with diet for 7 days by Experion chip analysis; type: functional, organism-based; set-up: dose 0.6 mg/kg
Mus musculus [27] = test: Antiatherosclerotic activity against high fat/high cholesterol fed LDLR-deficient mouse assessed as apoc1 gene regulation at 10 mg/kg administered with diet for 7 days by Experion chip analysis; type: functional, organism-based; set-up: dose 10 mg/kg
Mus musculus [28] = test: Antiatherosclerotic activity against high fat/high cholesterol fed LDLR-deficient mouse assessed as apoe gene regulation at 10 mg/kg administered with diet for 7 days by Experion chip analysis; type: functional, organism-based; set-up: dose 10 mg/kg
Mus musculus [29] = test: Antiatherosclerotic activity against high fat/high cholesterol fed LDLR-deficient mouse assessed as apoc1 gene regulation at 3 mg/kg administered with diet for 7 days by Experion chip analysis; type: functional, organism-based; set-up: dose 3 mg/kg
Mus musculus [30] = test: Antiatherosclerotic activity against high fat/high cholesterol fed LDLR-deficient mouse assessed as pcsk9 gene regulation at 0.6 mg/kg administered with diet for 7 days by Experion chip analysis; type: functional, organism-based; set-up: dose 0.6 mg/kg
Mus musculus [31] = test: Antiatherosclerotic activity against high fat/high cholesterol fed LDLR-deficient mouse assessed as cyp7a1 gene regulation at 10 mg/kg administered with diet for 7 days by Experion chip analysis; type: functional, organism-based; set-up: dose 10 mg/kg
Mus musculus [32] = test: Antiatherosclerotic activity against high fat/high cholesterol fed LDLR-deficient mouse duodenum assessed as induction of ABCG5 expression at 3 mg/kg administered with diet for 8 weeks; type: functional, organism-based; set-up: dose 3 mg/kg
Mus musculus [33] = test: Antiatherosclerotic activity against high fat/high cholesterol fed LDLR-deficient mouse assessed as Fasn gene regulation at 3 mg/kg administered with diet for 7 days by Experion chip analysis; type: functional, organism-based; set-up: dose 3 mg/kg
Mus musculus [34] = test: Antiatherosclerotic activity against high fat/high cholesterol fed LDLR-deficient mouse duodenum assessed as induction of ABCG8 expression at 3 mg/kg administered with diet for 8 weeks; type: functional, organism-based; set-up: dose 3 mg/kg
Mus musculus [35] = test: Antiatherosclerotic activity against high fat/high cholesterol fed LDLR-deficient mouse macrophages assessed as induction of ABCG1 expression at 3 mg/kg administered with diet for 8 weeks; type: functional, organism-based; set-up: dose 3 mg/kg
Mus musculus [36] = test: Antiatherosclerotic activity against high fat/high cholesterol fed LDLR-deficient mouse assessed as IPl gene regulation at 0.6 mg/kg administered with diet for 7 days by Experion chip analysis; type: functional, organism-based; set-up: dose 0.6 mg/kg
Mus musculus [37] = test: Antiatherosclerotic activity against high fat/high cholesterol fed LDLR-deficient mouse assessed as ldlr gene regulation at 10 mg/kg administered with diet for 7 days by Experion chip analysis; type: functional, organism-based; set-up: dose 10 mg/kg
Mus musculus [38] = test: Antiatherosclerotic activity against high fat/high cholesterol fed LDLR-deficient mouse assessed as scab1 gene regulation at 10 mg/kg administered with diet for 7 days by Experion chip analysis; type: functional, organism-based; set-up: dose 10 mg/kg

Row | SMILES | Activity (Mus musculus [1]) | Activity (Mus musculus [2]) | Activity (Mus musculus [3]) | Activity (Mus musculus [4]) | Activity (Mus musculus [5]) | Activity (Mus musculus [6]) | Activity (Mus musculus [7]) | Activity (Mus musculus [8]) | Activity (Mus musculus [9]) | Activity (Mus musculus [10]) | Activity (Mus musculus [11]) | Activity (Mus musculus [12]) | Activity (Mus musculus [13]) | Activity (Mus musculus [14]) | Activity (Mus musculus [15]) | Activity (Mus musculus [16]) | Activity (Mus musculus [17]) | Activity (Mus musculus [18]) | Activity (Mus musculus [19]) | Activity (Mus musculus [20]) | other results
1 | Cc1nc2c(C(F)(F)F)cccc2nc1-c1ccc(-c2cccc(S(C)(=O)=O)c2)cc1 | Active | Active | Active | Active | Active | Active | Active | Active | Active | Active | Active | Active | Active | Active | Active | Active | Active | Active | Active | Active | Activity (Mus musculus [21]): Active; Activity (Mus musculus [22]): inactive; Activity (Mus musculus [23]): Active; Activity (Mus musculus [24]): Active; Activity (Mus musculus [25]): Active; Activity (Mus musculus [26]): Active; Activity (Mus musculus [27]): Active; Activity (Mus musculus [28]): Active; Activity (Mus musculus [29]): Active; Activity (Mus musculus [30]): Active; Activity (Mus musculus [31]): Active; Activity (Mus musculus [32]): Active; Activity (Mus musculus [33]): Active; Activity (Mus musculus [34]): Active; Activity (Mus musculus [35]): Active; Activity (Mus musculus [36]): Active; Activity (Mus musculus [37]): Active; Activity (Mus musculus [38]): Active
2 | O=C(O)Cc1cccc(OCCCN(Cc2cccc(C(F)(F)F)c2Cl)CC(c2ccccc2)c2ccccc2)c1 | Active | Active | Active | Active | Active | Active | Active | Active | Active | Active | Active | Active | Active | Active | Active | Active | Active | Active | Active | Active | Activity (Mus musculus [21]): Active; Activity (Mus musculus [22]): inactive; Activity (Mus musculus [23]): Active; Activity (Mus musculus [24]): Active; Activity (Mus musculus [25]): Active; Activity (Mus musculus [26]): Active; Activity (Mus musculus [27]): Active; Activity (Mus musculus [28]): Active; Activity (Mus musculus [29]): Active; Activity (Mus musculus [30]): Active; Activity (Mus musculus [31]): Active; Activity (Mus musculus [32]): Active; Activity (Mus musculus [33]): Active; Activity (Mus musculus [34]): Active; Activity (Mus musculus [35]): Active; Activity (Mus musculus [36]): Active; Activity (Mus musculus [37]): Active; Activity (Mus musculus [38]): Active
